Test system: Larval ticks (Haemaphysalis longicornis)
Experiment: Test on controlling effects against Haemaphysalis longicornis (Petri dish contact, knock down time, Test Example 7)
Format: in vivo
Details: 1 ml in Petri dish, 25° C.
Procedure: On an inner surface of a Petri dish having a diameter of 9 cm, 1 ml of a solution of the compound No. 40 in acetone (concentration: 10 μg/ml, 1 μg/ml or 0.1 μg/ml) was dropped by a micro pipette. After the inner surface of the Petri dish was dried, 100 Larval ticks (Haemaphysalis longicornis) were put, and the Petri dish was covered with a polyethylene sheet and sealed by a rubber band. Thereafter, the Petri dish was left to stand still at a constant temperature of 25° C. under a relative humidity of 100% under a constant dark condition except for the time of observation. Observation was carried out every time upon expiration of a certain time (i.e. after 5, 10, 20, 30, 60, 120, 180 and 240 minutes), and the number of ticks knocked down after contact with the compound was counted. As a control group, Larval ticks were put in a Petri dish having 1 ml of acetone dropwise added and observed in the same manner. The above operation was repeated twice.
From the number of knocked down ticks in each observation, the survival rate was obtained, and a corrected mortality was calculated by the following Abbott correction formula. Then, probit-time linear line was drawn, and the median knock down time (KT50 value) was obtained.
Corrected mortality (%)=[(Survival rate in control group−Survival rate in treated group)/Survival rate in control group]×100

`Cc1ncccc1CN(Cc1ccccn1)c1cc(C(F)(F)F)c(Br)c(C(F)(F)F)c1` [compound 40] was tested, and the “KT50 value, Average” value (0.1 μg/ml) was 38 min, the “KT50 value, First time” value (0.1 μg/ml) was 40 min and the “KT50 value, Second time” value (0.1 μg/ml) was 35 min. The “KT50 value, Average” value (1 μg/ml) was 50 min, the “KT50 value, First time” value (1 μg/ml) was 50 min and the “KT50 value, Second time” value (1 μg/ml) was 50 min. The “KT50 value, Average” value (10 μg/ml) was 40 min, the “KT50 value, First time” value (10 μg/ml) was 40 min and the “KT50 value, Second time” value (10 μg/ml) was 40 min.

From patent US20100179172A1, “N-PHENYL-METHANAMINE DERIVATIVE AND PESTICIDE CONTAINING IT” (priority 2007, published 2010)
